Data reported in US9445979B2, “Hair treatment composition containing gambogic acid, ester or amide” (DSM IP ASSETS B.V., priority 2010, dated 2016).

Experiments:
Type in all cases: cell-based
[1] = tested on: human hair follicles; assay: Hair shaft elongation, hair cycle progression and toxicity in cultured human anagen VI hair follicles
Description: (§1) Tissue containing human hair follicles in the growth stage (anagen) of the hair cycle were obtained from elective facial surgery interventions. Hair follicles were isolated and maintained in culture according to methods well established in the art (Philpott et al. 1990, J Cell Sci. 97: 463-471). Gambogic amide (GA) was administered to pigmented cultured anagen VI hair follicle every other day over a culture period of 7 days in various concentrations comprised between 10 nano molar and 1 micro molar and compared to a control group without addition of GA.
Hair shaft elongation was measured as a way to assess possible hair growth promoting or inhibiting effects of GA. […] It is therefore concluded from this first observation that the dose range in which GA can be used is between 10 nano molar and 1 micro molar, and that GA can be used as a hair growth promoting or restoring agent.

[2] = tested on: human hair follicles; assay: Macroscopic analysis of hair follicle pigmentation in cultured anagen hair follicles; settings: 0.1 to 1 micro molar GA, 7 day culture, versus control group
Description: as §1

[3] = tested on: melanocytes in human hair follicles; assay: Immunohistochemical analysis of melanocytes in cultured hair follicles (NKI-beteb, Ki67, Trp2, cKit)
Text: Number of melanocytes in the hair follicle can be evaluated by standard methods e.g.: immunohistochemical staining of the melanocytes with the pan-melanocyte marker NKI-beteb following by counting the NKI-beteb+ cells.
Differentiation and migration of melanocytes from the hair sheath to the hair matrix can be measured by immunohistochemical staining of c-kit+ melanocytes in the hair follicle, and by assessing their distribution within the hair follicle.
as §1
Immunohistochemical analysis of hair follicle was performed according to standard methods. Immunohistochemical staining of the pan-melanocyte marker NKI-beteb and the proliferation marker Ki67 was used to asses total number of melanocytes in cultured follicles in presence of GA. […] This increase was dose dependent. […]

SMILES: CC(C)=CCC[C@]1(C)C=Cc2c(O)c3c(c(CC=C(C)C)c2O1)O[C@]12C(=C[C@@H]4C[C@H]1C(C)(C)O[C@@]2(C/C=C(/C)C(N)=O)C4=O)C3=O [GA, 2-Butenamide, 2-methyl-4-[(1R,3aS,5S,11R,14aS)-3a,4,5,7-tetrahydro-8-hydroxy-3,3,11-trimethyl-13-(3-methyl-2-buten-1-yl)-11-(4-methyl-3-penten-1-yl)-7,15-dioxo-1,5-methano-1H,3H,11H-furo[3,4-g]pyrano[3,2-b]xanthen-1-yl]-, (2Z)-]
- signs of toxicity ([1]; concentrations as high as 1 micro): No signs of toxicity were observed
- hair shaft elongation compared to control ([1]; concentrations between 0.1 and 1 micro molar, 7 days culture): increase in hair shaft elongation
- hair cycle progression ([1]; with the application of GA, 7 days culture): no hair cycle progression was observed
- hair follicle pigmentation (macroscopic analysis) [2]: clear and significant improvement of hair follicle pigmentation
- total number of melanocytes (NKI-beteb and Ki67 staining) ([3]; between 0.1 and 0.5 micro molar, hair follicles that remained in the anagen stage): total number of melanocytes was increased
- cKit labeling (marker for migrating, activated early melanocytes) ([3]; hair follicles treated between 0.1 and 1 micro molar GA): most pronouncedly found
